Experimental data: patent US20150104399A1, “PREVENTION OF FIBROBLAST COLLAPSE” (Biocogent, LLC, priority 2012, published 2015)

What was measured:
[1] = tested on: skin fibroblasts; assay: Viability of fibroblasts exposed to BSA reacted with ribose, resazurin dye; format: cell-based; settings: positive control for preventing glycation; human dermal fibroblasts exposed to glycated protein
Experimental: In some examples discussed herein, comparison was made between the skin care compositions of the present technology and those containing pyridoxamine as a positive control. It was shown that a population of human dermal fibroblasts (HDFs) exposed to glycated proteins is generally expected to collapse. Specifically, glycated protein (such as bovine serum albumin, BSA), when added to normally cultured skin fibroblasts at a concentration in the range of 2 to 6 mg/mL, caused cell death within approximately 18 to 36 hours. […] A series of tests was conducted to evaluate the skin care compositions of the present technology, to see whether they could prevent the target protein of BSA from being toxic to skin fibroblasts. This was done by first reacting BSA with the sugar (ribose) in a buffered saline solution. Some of the reaction mixtures also contained pyridoxamine (a drug used here as the positive control known to prevent glycation) or the skin care compositions of the present technology. […] After exposure of the cells to these solutions at 37° C. for 24 hours, the viability of the cells was determined by adding a dye (resazurin) to the wells and incubating at 37° C. for another hour. […] The color change in the wells was then measured as optical density on a plate-reading spectrophotometer. […]

[2] = tested on: skin fibroblasts; assay: Viability and attachment of confluent fibroblasts exposed to BSA reacted with ribose, neutral red dye, microscopy; format: cell-based, human; settings: BSA reacted with 100 millimolar ribose in presence of 10 millimolar pyridoxamine; 2 mg/mL BSA, 16 hours; FIG. 6
Experimental: A further series of tests was conducted to evaluate the skin care compositions of the present technology, to see whether they could prevent the target protein of BSA from being toxic to skin fibroblasts. This was done by first reacting BSA with the glycating sugar (ribose) in a buffered saline solution. Some of the reaction mixtures also contained pyridoxamine (a drug used here as the positive control known to prevent glycation) or the skin care compositions of the present technology. For this test, incubation of the sterile reaction mixtures was for two days at a temperature of about 45° C. After that, the reaction mixtures were extensively dialyzed against deionized water, removing all of the small molecules (ribose, salts, etc.) from the mixtures, leaving just the BSA. The resulting BSA solutions were then lyophilized (freeze-dried) to remove water, and the residues of BSA were resolubilized in a buffered saline solution. After measuring the protein concentration of each of these solutions, they were each added to a cell culture dish containing confluent fibroblasts to achieve a final BSA concentration of 2 milligrams per milliliter. After exposure of the cells to these solutions at 37° C. for 16 hours, the viability of the cells was determined by adding a dye (neutral red) to the plates and incubating at 37° C. for another hour. […]

Cc1ncc(CO)c(CN)c1O [pyridoxamine]
effect on fibroblast collapse [1]: mitigated some of the collapse
health of fibroblasts (neutral red uptake, attachment) [2]: have remained healthy
